# Assays:
# [1] = Enzymatic hydrolytic cleavage in human plasma; assay type: in vitro ADME; details: 37.0 ± 0.1° C.; for Observed first order hydrolytic rate constant k: ± SEM; for half-life at 1000 µM: human, plasma, read-out: Half-life t1/2
# Experimental: (§1) Analytical Methods. A high pressure liquid chromatography (HPLC) method was developed for the determination of the rate constants. The chromatographic analysis was performed in a system consisting of Waters Associates Model 600-A Solvent Delivery System, Model U-6K Injector and Model 440 Dual Channel Absorbance Detector operated at 254 and 280 nm. A 30 cm×3.9 mm (internal diameter) reverse phase μBondpack C18 column (Waters Associates), operated at ambient temperature, was used for all separations. When plasma samples were analyzed, the column was protected with a 2.3 cm×3.9 mm (internal diameter) Guard Column (Waters) packed with μBondpack C18/Corasil packing material. The mobile phase used for the separation of 17 and its degradation product, 5, consisted of water, 1-hexane sulfonic acid in acetic acid (B-6 reagent, Waters), 0.1M triethanolamine and methanol (100:1:100:799). […] For the separation of compounds 10-16 and 18 and their degradation product 5, a mobile phase consisting of water, 1-hexane sulfonic acid in acetic acid (B-6 reagent, Waters), 0.1M triethanolamine and methanol (390:1:10:599) was used.
# (§2) Determination of the Hydrolytic Rate Constants in Aqueous Solutions. A 0.01M phosphate buffer and 0.01N sodium hydroxide solution were prepared from freshly distilled deionized water. This ionic strength was maintained at 0.1M with sodium chloride. The pH of the phosphate buffer was determined at 37.0° C. with a pH meter standardized at this temperature. For determination of the hydrolytic rate constants, a fresh concentrated solution of the ester in methanol was added to the hydrolytic medium previously equilibrated to the desired temperature and mixed thoroughly to result in an initial concentration of about 5×10^-4 mol. liter^-1. All reactions were run under pseudo first order conditions. Samples of 25 μL were injected into the column at various time intervals and the pseudo first order rate constants were determined from disappearance of the compound by linear regression of natural logarithm of the peak height versus time plots. The half-life and standard error of the rate constant were calculated for each run.
# Determination of the Enzymatic Hydrolytic Cleavage Rates in Human Plasma. The freshly collected plasma used was obtained from the Civitan Regional Blood Center, Inc. (Gainesville, Fla.) and contained about 80% plasma diluted with anticoagulant citrate phosphate dextrose solution, U.S.P. The plasma was stored in a refrigerator and used within one week from the date it was collected.
# A portion of 50 μL of a freshly prepared solution of the compound in methanol was added to 10 mL plasma, previously equilibrated at 37.0° C. in a water bath, and mixed thoroughly to result in an initial concentration of 1×10^-3 mol. liter^-1. One mL samples of plasma were withdrawn from the test medium, mixed immediately with 4.0 mL ice cold 95% v/v ethanol, centrifuged and the supernatant analyzed by HPLC. The first order hydrolytic rate constant was determined as before in the aqueous solutions and the results are listed in TABLE II below.
# [2] = Hydrolysis in 0.01M phosphate buffer pH 7.4; assay type: physicochemical; details: pH 7.4, 37° C.
# Experimental: Analytical Methods. A high pressure liquid chromatography (HPLC) method was developed for the determination of the rate constants. The chromatographic analysis was performed in a system consisting of Waters Associates Model 600-A Solvent Delivery System, Model U-6K Injector and Model 440 Dual Channel Absorbance Detector operated at 254 and 280 nm. A 30 cm×3.9 mm (internal diameter) reverse phase μBondpack C18 column (Waters Associates), operated at ambient temperature, was used for all separations. When plasma samples were analyzed, the column was protected with a 2.3 cm×3.9 mm (internal diameter) Guard Column (Waters) packed with μBondpack C18/Corasil packing material. The mobile phase used for the separation of 17 and its degradation product, 5, consisted of water, 1-hexane sulfonic acid in acetic acid (B-6 reagent, Waters), 0.1M triethanolamine and methanol (100:1:100:799). […]
# Determination of the Hydrolytic Rate Constants in Aqueous Solutions. […] The pH of the phosphate buffer was determined at 37.0° C. with a pH meter standardized at this temperature. […] Samples of 25 μL were injected into the column at various time intervals and the pseudo first order rate constants were determined from disappearance of the compound by linear regression of natural logarithm of the peak height versus time plots. The half-life and standard error of the rate constant were calculated for each run.
# [3] = Hydrolytic rate in 0.01 N aqueous sodium hydroxide, pH 12.0; assay type: physicochemical; details: pH 12.0, ionic strength 0.10 M (NaCl), 27.3 ± 0.2° C.; for Observed pseudo first order hydrolytic rate constant k: 0.01 N NaOH, ± SEM; for half-life: 0.01 n naoh, pH 12, 0.01 N NaOH, read-out: Half-life t1/2
# Experimental: as §1, §2
# [4] = system: β-adrenergic; details: major metabolite found in the urine; Borg et al; cited from earlier work
# [5] = system: heart rate response to isoproterenol (β-adrenergic); assay: Heart rate response to isoproterenol in rats (initial drug screening); assay type: in vivo, male Spraque-Dawley rats; details: 6 mg/kg i.p.; mean ± SEM
# From the text: (§3) Initial Drug Screening Protocol. Thirty-two male Spraque-Dawley rats (Blue Spruce Farms) initially weighing 300-450 gm were divided into seven different groups, each for a different drug to be tested: 12(n=4), 14(n=4), 17(n=5), 13(n=4) and 18(n=3), corresponding to the designated compounds 12, 14, 17, 13 and 18 (number of animals), respectively. The other two groups were controls (n=8, isoproterenol alone pretreated with carrier) and those treated with a known β-blocker, dl-propranolol (n=3). Ech animal was anesthetized with sodium pentobarbital (45 mg/kg) and the carotid artery was cannulated with PE-50 tubing. The cannula was subcutaneously threaded around the neck and exteriorized dorsally between the shoulder blades. Th cannula was filled with a heparin solution (300 μg/mL) and sealed with a solid 22 gauge stylet. The animals were housed in individual stainless steel cages, and two days were allowed for recovery from the surgery. Food and water were provided ad libitum. On the day of the experiment, the blood pressure and heart rate of each rat were monitored with a pressure transducer (Narco-Bio model P-1000) and the data recorded on a four-channel physiograph (Narco-Bio systems Marck IV). One hour was allowed as an equilibration period before any drugs were administered. All beta blockers were administered intraperitoneally at a dose of 6 mg/kg. Compounds 12 and 14 and dl-proranolol were dissolved in normal saline while compounds 13, 17 and 18 were dissolved in an ethanol: water solution (3:1). Depending on the trial, controls were administered the appropriate carrier. One hour after administration of the blocker, isoproterenol (Isuprel®, Wintrop Laboratories) was administered subcutaneously at a dose of 25 μg/kg. Blood pressures and heart rate also were recorded 3, 5, 10, 15, 20, 30, 45 and 60 minutes after isoproterenol administration. Both control and experimental animals were unrestrained and free moving in their home cage throughout the experiment. […] However, significant differences in the mean heart rate response amoung the 7 groups were observed: *p<0.005;**p<0.025. Comparisons between groups were made by the Newman-Keuls procedure with significance set at the 95% confidence interval. […] All data are shown as mean±standard error of the mean.
# [6] = system: blood pressure response to isoproterenol; assay: Blood pressure response to isoproterenol in rats; assay type: in vivo, male Spraque-Dawley rats; details: 6 mg/kg i.p., isoproterenol 25 μg/kg s.c.; FIG. 3
# From the text: as §3
# Symbols are the same as those described for FIG. 1. […] Data are shown as mean±standard error of the mean.
# [7] = system: β-adrenergic; assay: β-adrenergic activity of the acid metabolite (statement)
Observed first order hydrolytic rate constant k [1] [min⁻¹],half-life at 1000 µM [1] [min],half-life [2] [days],Observed pseudo first order hydrolytic rate constant k [3] [min⁻¹],half-life [3] [min],Compound,activity as metabolite of metoprolol [4],resting heart rate prior to administration of isoproterenol [5] [beat/minute],mean change in blood pressure vs propranolol and compound 12-treated groups [6],activity of acid [7]
0.143 ± 0.005,4.86,8.7,0.103 ± 0.001,6.73,"CCCOC(=O)Cc1ccc(OCC(O)CNC(C)C)cc1 (centres unmarked) [Compound 11, n-Propyl 4-(2-hydroxy-3-isopropylamino)propoxyphenylacetate]",–,–,–,–
–,–,–,–,–,CC(C)NCC(O)COc1ccc(CC(=O)O)cc1 (centres unmarked) [drawing 10],inactive metabolite,–,–,–
0.236 ± 0.007,2.93,13,0.208 ± 0.004,3.33,"CC(C)NCC(O)COc1ccc(CC(=O)OCc2ccccc2)cc1 (centres unmarked) [Compound 14, Benzyl 4-(2-hydroxy-3-isopropylamino)propoxyphenylacetate]",–,405±22,significantly lower (p<0.15),–
–,–,–,–,–,"CC(C)NCC(O)COc1ccc(CC(=O)O)cc1 (centres unmarked) [Compound 5, 4-(2-Hydroxy-3-isopropylamino)propoxyphenylacetic acid]",–,–,–,inactive
